Measured values as given in patent US10611728B2, “Isoindoline compositions and methods for treating neurodegenerative disease” (priority 2014, dated 2020).
“Also recorded” adds a separate entry of the source.

Columns and labels:
[1] = Microsomal stability in mouse liver microsomes (MLM); assay type: in vitro ADME
Protocol: A first pharmacokinetic study was performed in microsomes of mice mouse liver microsomes, MLM) by a commercial contract research organization. The studies were performed according to Obach, R. S et al. (1997) J. Pharmacol. Exp. Ther., 283: 46-58, which is incorporated herein by reference.

neurons = conditions: neuronal cultures treated 24 hours; cited from earlier work
caspase-3 = conditions: tumor cells and neurons; cited from earlier work
[2] = system: Abeta oligomer-induced synapse loss in primary hippocampal neurons; test: Abeta 1-42 oligomer synapse loss assay; assay type: cell-based, rat; conditions: Abeta 42 oligomers
Protocol: In this assay, Abeta oligomers are brought in contact with mature primary neurons in culture and their binding was determined by immunohistochemistry (anti-Abeta antibody) and quantified by image processing. The amount of Abeta in neuronal dendrites is assessed by counting the number of labeled puncta on the neuritis. […] This labeling is associated with synapses, co-localizing with the post-synaptic scaffold protein PSD-95 (Lacor et al., '04). […] The number of synapses can also be quantified in this assay by immunofluorochemistry.
Primary hippocampal neuronal culture is established as in the membrane trafficking assay above. […] Pretreatment with test compounds for 1 hr and addition of Abeta oligomers or no oligomer (vehicle alone) is followed by incubation for an additional 23 hrs.
The plates are then washed 3× with PBS for 5 min each. The plates are blocked at RT for 1 hr in 5% goat serum and 0.5% Triton X-100 in PBS. Primary antibodies (anti-MAP 2 polyclonal, Millipore # AB5622 and anti-Beta Amyloid 6E10 monoclonal, Covance # SIG-39300, at 1 microgram/ml, and rabbit polyclonal anti-synaptophysin, Anaspec, at 0.2 microgram/ml) were diluted 1:1000 in 5% goat serum with PBS. Primary antibodies are incubated overnight at 4° C. The plates are then washed 3× with PBS for 5 min each. Secondary antibodies (Alex Flor 488 polyclonal, Invitrogen # A11008 and Alexa Flor 647 monoclonal, Invitrogen # A21235) are diluted 1:1000 in 5% goat serum with PBS. Secondary antibodies are incubated at RT for 1 hr. The plates are washed once with PBS. DAPI (4′,6-diamidino-2-phenylindole, Invitrogen) is then applied at 0.03 ug/ul and incubated at RT for 5 min, then washed with PBS.

[3] = half-life in mouse liver microsomes

Compound	Mouse liver microsomes, MLM t½ ([1]; mouse, microsomes) [min]	also measured
COc1cc2c(cc1OC)CN(C(C)(C)CCc1ccc(F)cc1)C2 [compound 34]	46	–
COc1cc(CC[C@@H](C)N2Cc3cc4c(cc3C2)OCO4)ccc1OCCO [compound 52]	97	–
COc1cc(CCC(C)(C)N2Cc3cccc(F)c3C2)ccc1OCCO [compound 44]	29	–
CC(C)(CCc1ccc(O)c(OC(F)(F)F)c1)N1Cc2cccc(C(=O)N3CCOCC3)c2C1 [compound 94]	14	–
C[C@H](CCc1ccc(F)cc1)N1Cc2ccc(F)cc2C1 [compound 22]	7	–
CN1CCN(C(=O)c2cccc3c2CN(C(C)(C)CCc2ccc(O)c(OC(F)(F)F)c2)C3)CC1 [compound 93]	5	–
Fc1ccc(-n2cc(CCCCN3CCC4(CC3)OCc3ccccc34)c3ccccc32)cc1 [Siramesine]	–	nuclear morphology / nuclear intensity in neurons (neurons): cause significant abnormal nuclear morphology in neurons; caspase-3 activation by ligand (caspase-3): activate caspase-3 in tumor cells and neurons; also recorded: induces caspase-3 activity
COc1cc(CCC(C)N2Cc3ccc4ccccc4c3C2)ccc1O.Cl (centres unmarked) [compound 17]	10	–
COc1cc(CC[C@@H](C)N2Cc3cc4c(cc3C2)OCO4)ccc1O [compound 6]	–	Mouse liver microsomes, MLM t½ [1, 3]: 20 min
CC(C)Oc1cc(CC[C@@H](C)N2Cc3ccc(F)cc3C2)ccc1O [compound 37]	5	–
COc1cc(CC[C@@H](C)N2Cc3cccc(F)c3C2)ccc1OCCO [compound 51]	66	–
COc1cc(CCC(C)(C)N2Cc3cc4c(cc3C2)OCO4)ccc1OCCO [compound 47]	91	–
C[C@H](CCc1ccc(F)cc1)N1Cc2cc3c(cc2C1)OCO3 [compound 23]	5	–
CC(C)COc1cc(CCC(C)(C)N2Cc3cccc(C(=O)N4CCOCC4)c3C2)ccc1O [compound 90]	9	–
CC(C)COc1cc(CCC(C)(C)N2Cc3cccc(C(=O)N(C)C)c3C2)ccc1O [compound 89]	17	–
CC(C)Oc1cc(CCC(C)(C)N2Cc3cccc(F)c3C2)ccc1O [compound 28]	4	–
COc1cc(CC[C@@H](C)N2Cc3cc(Cl)c(Cl)cc3C2)ccc1O [compound 3]	21	–
COc1cc2c(cc1OC)CN([C@@H](C)CCc1ccc(Cl)c(Cl)c1)C2 [compound 20]	43	–
COc1cc(CCC(C)(C)N2Cc3cccc(C(=O)N4CCN(C)CC4)c3C2)ccc1O [compound 82]	27	–
CC(C)COc1cc(CCC(C)(C)N2Cc3cccc(C(=O)N4CCN(C)CC4)c3C2)ccc1O [compound 91]	6	–
CC(C)(CCc1ccc(F)cc1)N1Cc2cccc(F)c2C1 [compound 33]	9	–
CCC(Oc1ccc(Cl)cc1)C(=O)OC1CC2CCC(C1)N2C (centres unmarked) [SM-21]	–	elimination of Abeta oligomer-induced synapse loss [2]: only weakly active in eliminating synapse loss; recovery of synapse loss [2]: 20%
COc1cc(CCC(C)(C)N2Cc3cccc(C(=O)NCCN(C)C)c3C2)ccc1O [compound 78]	450	–
C[C@H](CCc1ccc(Cl)c(Cl)c1)N1Cc2ccc3ccccc3c2C1 [compound 19]	25	–

Compound	Mouse liver microsomes, MLM t½ ([1]; mouse, microsomes) [min]	also measured
COc1cc(CCC(C)(C)N2Cc3cccc(S(C)(=O)=O)c3C2)ccc1O [compound 64]	52	–
COc1cc(CCC(C)(C)N2Cc3ccc(F)cc3C2)ccc1OC(=O)N(C)C [compound 50]	33	–
C[C@H](CCc1ccc(Cl)c(Cl)c1)N1Cc2cccc(F)c2C1 [compound 9]	12	–
C[C@H](CCc1ccc(O)c(OC(C)(C)C)c1)N1Cc2c(F)ccc(F)c2C1 [60A]	5	–
CC(C)(CCc1ccc(F)cc1)N1Cc2ccc(F)cc2C1 [compound 35]	9	–
COCCN(C)C(=O)c1cccc2c1CN(C(C)(C)CCc1ccc(O)c(OC)c1)C2 [compound 86]	19	–
COc1cc(CCC(C)(C)N2Cc3cccc(C(=O)N4CCOCC4)c3C2)ccc1O [compound 80]	45	–
CN(C)C(=O)c1cccc2c1CN(C(C)(C)CCc1ccc(O)c(OC(C)(C)C)c1)C2 [compound 59]	8	–
COc1cc(CCC(C)(C)N2Cc3cccc(C(=O)N(C)CCN(C)C)c3C2)ccc1O [compound 81]	88	–
CN(C)C(=O)c1cccc2c1CN(C(C)(C)CCc1ccc(O)c(OC(F)(F)F)c1)C2 [compound 57]	26	–
COc1cc(CC[C@@H](C)N2Cc3cccc(S(C)(=O)=O)c3C2)ccc1O [compound 65]	41	–
COc1cc(CC[C@@H](C)N2Cc3cccc(F)c3C2)ccc1O [compound 8]	16	–
CC(C)Oc1cc(CC[C@@H](C)N2Cc3ccc(S(C)(=O)=O)cc3C2)ccc1O [compound 69]	75	–
CC(C)(C)Oc1cc(CCC(C)(C)N2Cc3cccc(S(C)(=O)=O)c3C2)ccc1O [compound 66]	10	–
C[C@H](CCc1ccc(O)c(OC(F)(F)F)c1)N1Cc2ccc(F)cc2C1 [compound 31]	6	–
CC(C)Oc1cc(CCC(C)(C)N2Cc3ccc(S(C)(=O)=O)cc3C2)ccc1O [compound 70]	79	–
CC(C)(C)Oc1cc(CCC(C)(C)N2Cc3c(F)ccc(F)c3C2)ccc1O [compound 74]	21	–
C[C@H](CCc1ccc(Cl)c(Cl)c1)N1Cc2ccc(C(F)(F)F)cc2C1 [compound 4]	40	–
COc1cc(CCC(C)(C)N2Cc3ccc(F)cc3C2)ccc1OCCO [compound 45]	96	–
CC(C)COc1cc(CCC(C)(C)N2Cc3cccc(F)c3C2)ccc1O [compound 88]	28	–
COc1cc(CC[C@@H](C)N2Cc3ccc(C(F)(F)F)cc3C2)ccc1O [compound 2]	28	–
CCCN(CCC)CCc1ccc(OC)c(OCCc2ccccc2)c1 [NE-100]	–	elimination of Abeta oligomer-induced synapse loss [2]: completely eliminated synapse loss
C[C@H](CCc1ccc(F)cc1)N1Cc2cccc(F)c2C1 [compound 21]	7	–
CC(=O)N1CCN(C(=O)c2cccc3c2CN(C(C)(C)CCc2ccc(O)c(OCC(C)C)c2)C3)CC1 [compound 92]	7	–

Compound	Mouse liver microsomes, MLM t½ ([1]; mouse, microsomes) [min]	also measured
Cc1ccc2c(c1)CN([C@H](C)CCc1ccc(Cl)c(Cl)c1)C2 [compound 13]	3	–
C[C@H](CCc1ccc(Cl)c(Cl)c1)N1Cc2cc(Cl)c(Cl)cc2C1 [compound 5]	53	–
CC(C)(CCc1ccc(O)c(OC(F)(F)F)c1)N1Cc2cccc(S(C)(=O)=O)c2C1 [compound 67]	39	–
COc1cc(CCC(C)(C)N2Cc3cccc(F)c3C2)ccc1O [compound 53]	21	–
COc1cc2c(cc1OC)CN([C@H](C)CCc1ccc(Cl)c(Cl)c1)C2 [compound 11]	–	Mouse liver microsomes, MLM t½ [1, 3]: 61 min
CC(C)(CCc1ccc(O)c(OC(F)(F)F)c1)N1Cc2cccc(F)c2C1 [compound 54]	12	–
C[C@H](CCc1ccc(Cl)c(Cl)c1)N1Cc2cccc(Cl)c2C1.Cl [compound 16]	12	–
CC(C)Oc1ccc(CC[C@@H](C)N2Cc3cc4c(cc3C2)OCO4)cc1OC(C)C [compound 40]	6	–
C[C@H](CCc1ccc(Cl)c(Cl)c1)N1Cc2ccc(F)cc2C1.Cl [compound 12]	13	–
O=C(CCCN1CCC(O)(c2ccc(Cl)cc2)CC1)c1ccc(F)cc1 [haloperidol]	–	elimination of Abeta oligomer-induced synapse loss [2]: completely eliminated synapse loss
COc1ccc2c(c1)CN([C@H](C)CCc1ccc(Cl)c(Cl)c1)C2.Cl [compound 15]	15	–
C[C@H](CCc1ccc(Cl)c(Cl)c1)N1Cc2cc3c(cc2C1)OCO3 [compound 10]	8	–
CC(C)(CCc1ccc(O)c(OC(F)(F)F)c1)N1Cc2c(F)ccc(F)c2C1 [compound 55]	34	–
CC(C)(C)Oc1cc(CCC(C)(C)N2Cc3ccc(S(C)(=O)=O)cc3C2)ccc1O [compound 62]	45	–
CC(C)Oc1ccc(CCC(C)(C)N2Cc3ccc(F)cc3C2)cc1OC(C)C [compound 42]	14	–
C[C@H](CCc1ccc(OC(=O)N(C)C)c(OC(F)(F)F)c1)N1Cc2ccc(F)cc2C1 [compound 43]	5	–
CC(C)(CCc1ccc(F)cc1)N1Cc2cc3c(cc2C1)OCO3 [compound 36]	47	–
COC[C@H](CCc1ccc(Cl)c(Cl)c1)N1Cc2ccc(F)cc2C1 [compound 46]	5	–
CC(C)COc1cc(CCC(C)(C)N2Cc3ccc(S(C)(=O)=O)cc3C2)ccc1O [compound 87]	86	–
COc1cc(CC[C@@H](C)N2Cc3ccc(Cl)cc3C2)ccc1O [compound 1]	11	–
CC(C)Oc1cc(CC[C@@H](C)N2Cc3cccc(F)c3C2)ccc1O [compound 26]	4	–
C[C@H](CCc1ccc(O)c(OC(C)(C)C)c1)N1Cc2ccc(S(C)(=O)=O)cc2C1 [compound 63]	31	–
C[C@H](CCc1ccc(O)c(OC(C)(C)C)c1)N1Cc2cccc(F)c2C1 [60B]	8	–
C[C@H](CCc1ccc(O)c(OC(F)(F)F)c1)N1Cc2cc3c(cc2C1)OCO3 [compound 24]	5	–
